Test [1] relates to leukemia/lymphoma cell lines. In words: categorisation of the leukemia/lymphoma cell line panel by EC50. It counts as cell-based, human. The conditions noted are these: EC50 less than or equal to 4.8 μM. On the procedure: (§1) Cells were treated at 10,000 or 50,000 cells per well for adherent or suspension cells, respectively, in 96-well microtiter plates in the presence of 10% human serum for 48 hours with or without ABT-263, in a humidified chamber with 5% CO2. ABT-263 was synthesized as previously described in Tse, C., Shoemaker, A. R., Adickes, J., et al., “ABT-263: a potent and orally bioavailable Bcl-2 family inhibitor,” Cancer Res 2008; 68: 3421-3428; and Oltersdorf, T., Elmore, S. W., Shoemaker, A. R., et al., “An inhibitor of Bcl-2 family proteins induces regression of solid tumours,” Nature 2005; 435: 677-681, and cell cytotoxicity EC50 values were assessed using CellTiter Glo (Promega, Madison Wis.).
o divide the training set cell lines into sensitive and resistant categories, a bivariate fit curve was generated for the ABT-263 EC50 versus rank and fitted with a smoothing spline (lambda=1), and the maximum increase in the slope was approximately 5 μM for both sets. […]
Division of cell lines into sensitive and resistant categories. […] To identify gene expression patterns that can predict sensitivity to ABT-263, as well as genes that might contribute to resistance to treatment, RNA expression profiles for a panel of SCLC cell lines were determined, as well as a panel of leukemia and lymphoma cell lines. […]

The test system of another test is Rec-1. In words: cell cytotoxicity EC50, CellTiter Glo, Mantle Cell Lymphoma cell line, Rec-1 sub-clone batch listed first. The class given is cell-based, human. The procedure:
The SCLC and leukemia/lymphoma cell lines listed below were obtained from the American Type Culture Collection (Manassas, Va.), Deutsche Sammlung von Mikroorganismen und Zellkulturen (DSMZ, Braunsweig, Germany), or were the generous gift from Dr. Louis Staudt (National Cancer Institute) and were cultured as described in Tse, C., Shoemaker, A. R., Adickes, J., et al., “ABT-263: a potent and orally bioavailable Bcl-2 family inhibitor,” Cancer Res 2008; 68: 3421-3428; and Tahir, S. K., Yang, X., Anderson, M. G., et al., “Influence of Bcl-2 family members on the cellular response of small-cell lung cancer cell lines to ABT-737,” Cancer Res 2007; 67: 1176-1183.
as §1

The next test concerns NCI-H711. In words: sensitivity of SCLC cell line, procedure of Oltersdorf. It counts as cell-based. Conditions: Homo sapiens, read-out: sensitivity class by EC50. On the procedure:
(§2) The following SCLC cell lines were obtained from ATCC (Manassis, Va.): NCI-H889, NCI-H1963, NCI-H1417, NCI-H146, NCI-H187, DMS53, NCI-H510, NCI-H209, NCI-H211, NCI-H345, NCI-H524, NCI-H69, DMS79, SHP77, NCI-H1688, NCI-H446, NCI-H740, NCI-H1048, NCI-H82, NCI-H196, SW1271, H69AR, NCI-H526, NCI-H865, NCI-H748, NCI-H711, and DMS114. All cells were cultured in the ATCC recommended media at 37° C. in a humidified atmosphere containing 5% CO2. The following leukemia and lymphoma cell lines were obtained from ATCC (Manassis, Va.): MV-4-11, RS4;11, Loucy, KG-1A, DOHH2, Rs11380, CCRF-HSB-2, CCRF-CEM, CEM/C1, Reh, SUP-B15, MOLT-4, SUDHL4, HL-60, RPMI 8226, A3, Daudi, WSU-NHL, Pfeiffer, Jurkat I 9.2, Jurkat, MEG-01, U-937, K-562, and Raji.
(§3) The 27 SCLC cell lines were tested for sensitivity to ABT-737 using the procedure described in Oltersdorf, T., “An inhibitor of Bcl-2 family proteins induces regression of solid tumours”, Nature, 435: 677-681, 2005, with a cell line classified as sensitive if its EC50<5 μM and as resistant if its EC50>5 µM. The sensitive cell line group consisted of NCI-H889, NCI-H1963, NCI-H1417, NCI-H146, DMS 53, NCI-H187, NCI-H510, NCI-H209, NCI-H345, NCI-H526, NCI-H211, NCI-H865, NCI-H524, NCI-H748, DMS 79, NCI-H69, NCI-H711, SHP 77, NCI-H1688, and the resistant cell line group was comprised of NCI-H446, NCI-H740, NCI-H1048, NCI-H82, NCI-H196, SW1271, DMS 114, and NCI-H69AR.

In another test the test system is NCI-H526. The test is described as above. Conditions: Homo sapiens, read-out: sensitivity class by EC50. It counts as cell-based. The procedure: as §2, §3
The test system of a further test is NCI-H748. Described as above. It counts as cell-based. The conditions noted are these: Homo sapiens, read-out: sensitivity class by EC50. On the procedure:
as §2, §3

The subject of another test is NCI-H865. Described as above. It counts as cell-based. The conditions noted are these: Homo sapiens, read-out: sensitivity class by EC50. On the procedure:
as §2, §3

A further test concerns NCI-H524. Described as above. Conditions: Homo sapiens, read-out: sensitivity class by EC50. It counts as cell-based. The procedure: as §2, §3
Test [2] concerns diverse panel of human cancer cell lines. The conditions noted are these: cited from earlier work.

Like-named read-outs stand apart in the source and are kept apart here.

`CC1(C)CCC(c2ccc(Cl)cc2)=C(CN2CCN(c3ccc(C(=O)NS(=O)(=O)c4ccc(N[C@H](CCN5CCOCC5)CSc5ccccc5)c(S(=O)(=O)C(F)(F)F)c4)cc3)CC2)C1` [ABT-263, N-(4-(4-((2-(4-chlorophenyl)-5,5-dimethyl-1-cyclohex-1-en-1-yl)methyl)piperazin-1-yl)benzoyl)-4-(((1R)-3-(morpholin-4-yl)-1-((phenylsulfanyl)methyl)propyl)amino)-3-((trifluoromethyl)sulfonyl)benzenesulfonamide]: the “leukemia/lymphoma cell lines categorized as being sensitive” value in test [1] was 25 out of 31. For the same compound, the EC50 with Rec-1 (Homo sapiens, Rec1, read-out: Response Designation) was ≤ 4.8 µM; with Rec-1 (Rec1, 10% human serum, 48 hours, read-out: EC50) it was 0.034 µM.

For the compound `CN(C)CC[C@H](CSc1ccccc1)Nc1ccc(S(=O)(=O)NC(=O)c2ccc(N3CCN(Cc4ccccc4-c4ccc(Cl)cc4)CC3)cc2)cc1[N+](=O)[O-]` [ABT-737, N-(4-(4-((4′-chloro(1,1′-biphenyl)-2-yl)methyl)piperazin-1-yl)benzoyl)-4-(((1R)-3-(dimethylamino)-1-((phenylsulfanyl)methyl)propyl)amino)-3-nitrobenzenesulfonamide], the EC50 with NCI-H711, in the test with NCI-H526, with NCI-H748, in the test with NCI-H865 and in the test with NCI-H524 was < 5 µM throughout. In addition, in test [2], the “potency across a diverse panel of human cancer cell lines” value is “selective potency against SCLC and lymphoma cell lines”.

These data come from patent US20100028889A1, “COMPANION DIAGNOSTIC ASSAYS FOR CANCER THERAPY” (ABBOTT LABORATORIES, priority 2006, published 2010).
